Earlier results, collected in patent EP4062897A1, “HAIR CARE COMPOSITION AND PREPARATION METHOD THEREFOR” (BioRight Worldwide Company Limited, priority 2019, dated 2021).

Details: in aqueous solution, typical value

- half-life: 14 days
Structure (SMILES): NC(=O)c1ccc[n+]([C@@H]2O[C@H](COP(=O)([O-])O)[C@@H](O)[C@H]2O)c1 [nicotinamide mononucleotide, Nicotinamide mononucleotide]
